Results from patent US10472358B2, “1H-pyrrolo[2,3-c]pyridin-7(6H)-ones and pyrazolo[3,4-c]pyridin-7(6H)-ones as inhibitors of BET proteins” (Incyte Corporation, priority 2014, dated 2019).

System: KMS.12.BM cells
Assay: KMS.12.BM cell viability assay (Cell Titer-GLO, ATP quantitation)
Format: cell-based
Conditions: human myeloma cells, 3 days, concentration required for 50% cell death
Procedure: Example B1: KMS.12.BM Cell Viability Assay
KMS.12.BM cell line (human myeloma) was purchased from JCRB (Osaka, Japan) and maintained in RPMI with 10% FBS culture medium. To measure the cytotoxic activity of the compounds through ATP quantitation, the KMS.12.BM cells are plated in the RPMI culture medium at 5000 cells/well/per 100 μL into a 96-well polystyrene clear black tissue culture plate (Greiner-bio-one through VWR, NJ), in the presence or absence of a concentration range of test compounds. After 3 days, […] Cell Titer-GLO Luminescent (Promega, Madison, Wis.) cell culture agent is added to each well for 10 minutes at room temperature to stabilize the luminescent signal. This determines the number of viable cells in culture based on quantitation of the ATP present, which signals the presence of metabolically active cells. Luminescence is measured with the Top Count 384 (Packard Bioscience through Perkin Elmer, Boston, Mass.). Compound inhibition is determined relative to cells cultured with no drug and the IC50 is reported as the compound concentration required for 50% cell death.

For `COc1cc2c(c(-c3cn(C)c(=O)c4[nH]ccc34)c1)OC(C(C)C)C(=O)N2` (single isomer, unassigned) [Example 9A, 2-isopropyl-6-methoxy-8-(6-methyl-7-oxo-6,7-dihydro-1H-pyrrolo[2,3-c]pyridin-4-yl)-2H-1,4-benzoxazin-3(4H)-one], the IC50 (KMS-12-BM, 72 h) was ≤ 1000 nM.

For `COc1cc2c(c(-c3cn(C)c(=O)c4[nH]ccc34)c1)OC(c1ccccc1)C(=O)N2` (single isomer, unassigned) [Example 24A, 6-methoxy-8-(6-methyl-7-oxo-6,7-dihydro-1H-pyrrolo[2,3-c]pyridin-4-yl)-2-phenyl-2H-1,4-benzoxazin-3(4H)-one], the IC50 (KMS-12-BM, 72 h) was ≤ 1000 nM.

With `COc1cc2c(c(-c3cn(C)c(=O)c4[nH]ccc34)c1)OC(c1ccccc1)C(=O)N2` (single isomer, unassigned) [Example 24B, 6-methoxy-8-(6-methyl-7-oxo-6,7-dihydro-1H-pyrrolo[2,3-c]pyridin-4-yl)-2-phenyl-2H-1,4-benzoxazin-3(4H)-one] the IC50 was ≤ 1000 nM.

For `COc1cc2c(c(-c3cn(C)c(=O)c4[nH]ccc34)c1)OC(C1CCCC1)C(=O)N2` (single isomer, unassigned) [Example 35A, 2-Cyclopentyl-6-methoxy-8-(6-methyl-7-oxo-6,7-dihydro-1H-pyrrolo[2,3-c]pyridin-4-yl)-2H-1,4-benzoxazin-3(4H)-one], the IC50 (KMS-12-BM, 72 h) was ≤ 1000 nM.

With `COc1cc2c(c(-c3cn(C)c(=O)c4[nH]ccc34)c1)OC(C1CCCC1)C(=O)N2` (single isomer, unassigned) [Example 35B, 2-Cyclopentyl-6-methoxy-8-(6-methyl-7-oxo-6,7-dihydro-1H-pyrrolo[2,3-c]pyridin-4-yl)-2H-1,4-benzoxazin-3(4H)-one] the IC50 was ≤ 1000 nM.

With `COc1cc2c(c(-c3cn(C)c(=O)c4[nH]ncc34)c1)OC(C1CCCC1)C(=O)N2` (single isomer, unassigned) [Example 42A, 2-cyclopentyl-6-methoxy-8-(6-methyl-7-oxo-6,7-dihydro-1H-pyrazolo[3,4-c]pyridin-4-yl)-2H-1,4-benzoxazin-3(4H)-one] the IC50 (KMS-12-BM, 72 h) was ≤ 1000 nM.

For `COc1cc2c(c(-c3cn(C)c(=O)c4[nH]ncc34)c1)OC(C1CCCC1)C(=O)N2` (single isomer, unassigned) [Example 42B, 2-cyclopentyl-6-methoxy-8-(6-methyl-7-oxo-6,7-dihydro-1H-pyrazolo[3,4-c]pyridin-4-yl)-2H-1,4-benzoxazin-3(4H)-one], the IC50 was ≤ 1000 nM.

In the case of `CC(C)C1Oc2c(cc(S(C)(=O)=O)cc2-c2cn(C)c(=O)c3[nH]ccc23)NC1=O` (single isomer, unassigned) [Example 44A, 2-isopropyl-8-(6-methyl-7-oxo-6,7-dihydro-1H-pyrrolo[2,3-c]pyridin-4-yl)-6-(methylsulfonyl)-2H-1,4-benzoxazin-3(4H)-one], the IC50 (KMS-12-BM, 72 h) is reported as ≤ 1000 nM.

`CC(C)C1Oc2c(cc(S(C)(=O)=O)cc2-c2cn(C)c(=O)c3[nH]ccc23)NC1=O` (single isomer, unassigned) [Example 44B, 2-isopropyl-8-(6-methyl-7-oxo-6,7-dihydro-1H-pyrrolo[2,3-c]pyridin-4-yl)-6-(methylsulfonyl)-2H-1,4-benzoxazin-3(4H)-one] was tested, and the IC50 was ≤ 1000 nM.

With `CC(C)C1Oc2c(-c3cn(C)c(=O)c4[nH]ccc34)cc(S(C)(=O)=O)cc2N(C)C1=O` (single isomer, unassigned) [Example 47A, 2-isopropyl-4-methyl-8-(6-methyl-7-oxo-6,7-dihydro-1H-pyrrolo[2,3-c]pyridin-4-yl)-6-(methylsulfonyl)-2H-1,4-benzoxazin-3(4H)-one] the IC50 (KMS-12-BM, 72 h) was ≤ 1000 nM.

In the case of `CC(C)C1Oc2c(-c3cn(C)c(=O)c4[nH]ccc34)cc(S(C)(=O)=O)cc2N(C)C1=O` (single isomer, unassigned) [Example 47B, 2-isopropyl-4-methyl-8-(6-methyl-7-oxo-6,7-dihydro-1H-pyrrolo[2,3-c]pyridin-4-yl)-6-(methylsulfonyl)-2H-1,4-benzoxazin-3(4H)-one], the IC50 is reported as ≤ 1000 nM.
